The source of these data is patent publication US11780821B2, “Inhibitors of fibroblast activation protein” (Praxis Biotech LLC, priority 2017, dated 2023).

For test [1], the target named is T1, recombinant mouse PREP (rmPREP) (Mus musculus, UniProt Q9QUR6).
T1 construct: purchased R&S system (so in the source)
Nature of the test: PREP enzymatic activity assay. Format: biochemical. Conditions: Z-Gly-Pro-AMC substrate. The method, then:
7-Amino-4-Methylcoumarin (AMC) release was detected by measuring fluorescence at Ex/Em 380/460 nm using a Multifunction Microplate Reader (Synergy 4, Biotek). All measurements were carried out in triplicate.

For test [2], the target named is T2, recombinant mouse DPPIV (rmDPPIV) (Mus musculus, UniProt P28843).
T2 construct: purchased R&S system (so in the source)
T2 sequence (P28843 whole entry): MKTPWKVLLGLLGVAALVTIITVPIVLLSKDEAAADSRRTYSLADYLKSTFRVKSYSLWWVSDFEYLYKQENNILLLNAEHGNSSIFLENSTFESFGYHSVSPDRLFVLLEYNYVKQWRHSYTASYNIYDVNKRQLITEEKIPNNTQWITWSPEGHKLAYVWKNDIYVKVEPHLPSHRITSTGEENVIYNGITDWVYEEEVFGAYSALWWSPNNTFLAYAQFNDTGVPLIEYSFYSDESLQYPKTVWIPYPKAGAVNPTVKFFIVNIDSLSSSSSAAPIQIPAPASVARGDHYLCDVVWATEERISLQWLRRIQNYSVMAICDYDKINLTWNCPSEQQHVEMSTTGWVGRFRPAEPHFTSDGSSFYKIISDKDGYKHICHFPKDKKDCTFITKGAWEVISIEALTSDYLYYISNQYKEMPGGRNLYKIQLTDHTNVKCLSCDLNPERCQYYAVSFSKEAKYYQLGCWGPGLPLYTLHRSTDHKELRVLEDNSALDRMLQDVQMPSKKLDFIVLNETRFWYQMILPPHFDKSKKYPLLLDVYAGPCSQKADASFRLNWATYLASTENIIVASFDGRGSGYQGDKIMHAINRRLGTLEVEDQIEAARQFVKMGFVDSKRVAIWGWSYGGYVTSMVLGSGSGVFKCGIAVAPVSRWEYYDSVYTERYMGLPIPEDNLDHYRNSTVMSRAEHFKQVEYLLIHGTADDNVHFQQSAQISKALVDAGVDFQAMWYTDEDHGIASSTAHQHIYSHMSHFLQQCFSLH
Nature of the test: DPPIV enzymatic activity assay. Format: biochemical. Conditions: H-Gly-Pro-pNA substrate.

In test [3] the target is T3, recombinant human FAPα (rhFAPα) (Homo sapiens, UniProt Q12884).
T3 construct: purchased R&S system (so in the source)
T3 sequence (Q12884 1-760): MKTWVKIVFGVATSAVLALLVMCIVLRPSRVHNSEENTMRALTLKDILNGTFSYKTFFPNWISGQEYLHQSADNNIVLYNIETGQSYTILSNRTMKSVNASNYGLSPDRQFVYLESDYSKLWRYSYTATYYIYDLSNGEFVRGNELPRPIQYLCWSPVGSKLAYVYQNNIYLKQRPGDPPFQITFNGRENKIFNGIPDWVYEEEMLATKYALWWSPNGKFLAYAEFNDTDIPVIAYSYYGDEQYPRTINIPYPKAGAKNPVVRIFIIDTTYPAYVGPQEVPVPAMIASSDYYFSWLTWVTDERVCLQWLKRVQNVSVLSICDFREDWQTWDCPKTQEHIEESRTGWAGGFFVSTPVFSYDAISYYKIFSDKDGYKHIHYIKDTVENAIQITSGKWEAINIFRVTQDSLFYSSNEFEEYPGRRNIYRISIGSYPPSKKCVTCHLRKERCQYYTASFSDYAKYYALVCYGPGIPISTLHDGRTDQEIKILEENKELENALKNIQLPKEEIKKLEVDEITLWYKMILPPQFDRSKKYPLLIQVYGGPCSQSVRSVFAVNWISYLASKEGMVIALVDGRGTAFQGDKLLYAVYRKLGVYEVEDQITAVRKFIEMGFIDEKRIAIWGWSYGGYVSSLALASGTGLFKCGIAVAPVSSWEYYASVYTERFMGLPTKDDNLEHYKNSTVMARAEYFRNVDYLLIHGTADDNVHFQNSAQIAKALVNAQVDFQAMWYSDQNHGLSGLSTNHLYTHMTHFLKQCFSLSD
Briefly: FAPα enzymatic endopeptidase (collagenase) activity assay. Format: biochemical. Conditions: DQ collagen substrate, read-out: rhFAPα (endo IC50). As for the experimental part:
FAPα enzymatic endopeptidase (collagenase) activity assay. […] All measurements were performed as a single point.

In test [4] the target is T4, circulating FAPα from hamster plasma (Mesocricetus auratus, UniProt A0ABM2XF29).
T4 sequence (A0ABM2XF29 24-761): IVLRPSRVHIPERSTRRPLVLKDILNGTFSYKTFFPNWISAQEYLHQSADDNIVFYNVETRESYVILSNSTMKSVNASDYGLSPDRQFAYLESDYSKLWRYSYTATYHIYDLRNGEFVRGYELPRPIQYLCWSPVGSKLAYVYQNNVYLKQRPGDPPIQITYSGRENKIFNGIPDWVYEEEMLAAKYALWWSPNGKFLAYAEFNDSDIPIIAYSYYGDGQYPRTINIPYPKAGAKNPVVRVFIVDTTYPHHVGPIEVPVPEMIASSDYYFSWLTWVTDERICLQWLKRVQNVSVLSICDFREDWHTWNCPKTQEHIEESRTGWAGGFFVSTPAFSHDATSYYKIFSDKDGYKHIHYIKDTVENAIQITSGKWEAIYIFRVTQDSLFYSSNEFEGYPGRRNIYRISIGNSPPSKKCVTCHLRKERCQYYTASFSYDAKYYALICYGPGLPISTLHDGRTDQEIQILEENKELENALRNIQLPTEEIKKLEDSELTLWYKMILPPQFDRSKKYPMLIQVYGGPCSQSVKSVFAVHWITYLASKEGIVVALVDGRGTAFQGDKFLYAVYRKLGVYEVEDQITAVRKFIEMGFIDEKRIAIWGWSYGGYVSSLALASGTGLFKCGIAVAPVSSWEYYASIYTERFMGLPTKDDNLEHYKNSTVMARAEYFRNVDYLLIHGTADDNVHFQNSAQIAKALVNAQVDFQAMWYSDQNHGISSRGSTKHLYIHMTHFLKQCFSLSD
Briefly: Ex vivo inhibition of circulating FAPα activity from hamster plasma. The format is biochemical, Golden Syrian hamster. As for the experimental part: Male Golden Syrian hamsters were provided by National Laboratory Animal Center (NLAC) in Taiwan. The animals were maintained in a hygienic environment under controlled temperature (20-24° C.) and humidity (50%-80%) with 12 hours light/dark cycles. Free access to standard lab diet [MFG (Oriental Yeast Co., Ltd. Japan)] and autoclaved tap water were granted. All aspects of this work including housing, experimentation and disposal of animals were performed in general accordance with the “Guide for the Care and Use of Laboratory Animals: Eighth Edition” (National Academies Press, Washington, D.C., 2011). In addition, the animal care and use protocol was reviewed and approved by the IACUC at Pharmacology Discovery Services Taiwan, Ltd. Immediately after the sacrifice of hamsters, blood samples were collected via terminal cardiac puncture in tubes coated with EDTA-K2, mixed gently, then kept on ice and centrifuged at 2,500×g for 15 minutes at 4° C. After plasma separation, samples were stored at −80° C. in aliquots of 300 μL.
To assay exemplary compounds in hamster plasma, a similar protocol as described for human plasma was performed diluting thawed plasma 1:2 in cFAP buffer. In a 96-well black plate, 5 μl of diluted hamster plasma were mixed with 35 μl of the same buffer and 10 μl of exemplary test compounds at different concentrations or vehicle (DMSO).
Exemplary test compounds were allowed to interact with the enzyme for 15 minutes at 37° C. After pre-incubation, 50 μl of 200 μM PRXS-AMC substrate were added to the all mixtures. All reactions were carried out for 1 h at 37° C. protected from light. AMC release was detected measuring fluorescence at an excitation/emission wavelength of 380/460 nm using a Multifunction Microplate Reader. All measurements were carried out as single point.

Where [5] appears, read: read-out: FAPα activity in hamster plasma (PRXS-AMC) IC50, PRXS-AMC substrate.
[6] abbreviates: PRXS-AMC substrate, read-out: FAPα activity in hamster plasma (PRXS-AMC) IC50.

Read-outs that look alike come from different tables or passages of the source. Some results are limits rather than exact numbers.

T1 sequence (Q9QUR6 whole entry): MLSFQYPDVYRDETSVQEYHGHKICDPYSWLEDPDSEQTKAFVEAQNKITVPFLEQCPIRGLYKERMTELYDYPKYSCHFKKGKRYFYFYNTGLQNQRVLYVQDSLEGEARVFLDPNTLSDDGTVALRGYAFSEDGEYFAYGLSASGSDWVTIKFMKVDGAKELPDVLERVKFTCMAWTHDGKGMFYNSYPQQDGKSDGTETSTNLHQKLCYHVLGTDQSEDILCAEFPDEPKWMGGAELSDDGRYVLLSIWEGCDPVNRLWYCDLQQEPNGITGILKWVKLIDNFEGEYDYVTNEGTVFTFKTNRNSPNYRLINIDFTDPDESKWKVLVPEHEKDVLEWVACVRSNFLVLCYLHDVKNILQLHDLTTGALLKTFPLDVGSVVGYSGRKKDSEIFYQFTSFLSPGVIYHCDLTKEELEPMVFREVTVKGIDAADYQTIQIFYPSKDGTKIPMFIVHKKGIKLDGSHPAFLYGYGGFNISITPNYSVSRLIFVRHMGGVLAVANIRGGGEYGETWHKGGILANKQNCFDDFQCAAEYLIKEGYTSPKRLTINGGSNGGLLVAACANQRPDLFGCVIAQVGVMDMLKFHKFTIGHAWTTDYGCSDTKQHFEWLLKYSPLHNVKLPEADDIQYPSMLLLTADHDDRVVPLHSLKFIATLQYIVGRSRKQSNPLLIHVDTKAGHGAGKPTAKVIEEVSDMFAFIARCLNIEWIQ

For the molecule `N#C[C@@H]1CC(F)(F)CN1C(=O)CNC(=O)c1ccncc1-c1ccccc1` [Compound 13, (S)—N-(2-(2-cyano-4,4-difluoropyrrolidin-1-yl)-2-oxoethyl)-3-phenylisonicotinamide], the IC50 in test [1] was greater than 10000 nM; in test [2], greater than 10000 nM; in test [3], less than 1000 nM; in test [4] (setting [5]), less than 1000 nM.

For the molecule `N#C[C@@H]1CC(F)(F)CN1C(=O)CNC(=O)c1c[nH]c(=O)c(-c2ccccc2)c1` [Compound 14, (S)—N-(2-(2-cyano-4,4-difluoropyrrolidin-1-yl)-2-oxoethyl)-6-oxo-5-phenyl-1,6-dihydropyridine-3-carboxamide], the figures for the IC50 in test [1], in test [2] and in test [3] were greater than 10000 nM, greater than 10000 nM and less than 1000 nM, respectively.

Consider `N#C[C@@H]1CC(F)(F)CN1C(=O)CNC(=O)c1ccncc1C1CC1` [Compound 24, (S)—N-(2-(2-cyano-4,4-difluoropyrrolidin-1-yl)-2-oxoethyl)-3-cyclopropylisonicotinamide], for which the 50% inhibitory concentration (IC50) in test [3] and in test [4] (setting [5]) was less than 1000 nM each time.

Regarding `N#C[C@@H]1CC(F)(F)CN1C(=O)CNC(=O)c1ccncc1-c1ccc(F)cc1` [Compound 52, (S)—N-(2-(2-cyano-4,4-difluoropyrrolidin-1-yl)-2-oxoethyl)-3-(4-fluorophenyl)isonicotinamide], the half-maximal inhibitory concentration (IC50) in test [4] (setting [5]) was less than 1000 nM.

In the case of `N#C[C@@H]1CC(F)(F)CN1C(=O)CNC(=O)c1ccncc1C1=CCNCC1` [Compound 105, (S)—N-(2-(2-cyano-4,4-difluoropyrrolidin-1-yl)-2-oxoethyl)-1′,2′,3′,6′-tetrahydro-[3,4′-bipyridine]-4-carboxamide 2,2,2-trifluoroacetate], the IC50 in test [3] and in test [4] (setting [5]) was less than 1000 nM throughout.

On to `N#C[C@@H]1CC(F)(F)CN1C(=O)CNC(=O)c1c[nH]c(=O)cc1-c1ccc(F)cc1` [Compound 109, (S)—N-(2-(2-cyano-4,4-difluoropyrrolidin-1-yl)-2-oxoethyl)-4-(4-fluorophenyl)-6-oxo-1,6-dihydropyridine-3-carboxamide], for which the IC50 in test [3] and in test [4] (setting [6]) was less than 1000 nM in each case.

Consider `C=C(c1ccccc1)c1cnccc1C(=O)NCC(=O)N1CC(F)(F)C[C@H]1C#N` [Compound 122, (S)—N-(2-(2-cyano-4,4-difluoropyrrolidin-1-yl)-2-oxoethyl)-3-(1-phenylvinyl)isonicotinamide], for which the IC50 in test [4] (setting [6]) was less than 1000 nM.

Consider `N#C[C@@H]1CC(F)(F)CN1C(=O)CNC(=O)c1c[nH]c(=O)c2ccccc12` [Example 1, (S)—N-(2-(2-cyano-4,4-difluoropyrrolidin-1-yl)-2-oxoethyl)-1-oxo-1,2-dihydroisoquinoline-4-carboxamide], for which the IC50 in test [1] was 1000 to 10000 nM; in test [2] it was 1000 to 10000 nM; in test [3] it was less than 1000 nM.

The term IC50 denotes the concentration that inhibits the measured activity by half.
